Inconclusive results are not listed.
System: HRAS cells, caspase 3/7 apoptosis luminescence, multiple timepoints
Assay: time-course apoptosis signal, HRAS cell line – caspase 3/7 luminescence, plate reader, dry powder, mechanism study for HRAS target identification (AID 720625)

COc1ccc(N(C(=O)CCl)C(C(=O)NCCc2ccccc2)c2cccs2)cc1Cl (centres undefined)
AC40: 7.66 µM
AC40 (measured here: timepoint 1): 22.2 µM
AC40 (measured here: timepoint 2): 0.177 µM
AC40 (measured here: timepoint 3): 0.551 µM

Source: PubChem BioAssay AID720625 (Broad Institute, 2013)
